Test results: publication PMC10771415, “Mechanism of anion exchange and small-molecule inhibition of pendrin” (Nature Communications, 2024)

Assays:
[1] = target: pendrin (ssPendrin, SLC26A4) (Sus scrofa, UniProt A0A480E679, Q101L/T224A); experiment: inhibition of […]-HCO3- uptake in proteoliposomes of purified mutant; assay type: biochemical
[2] = target: T1, pendrin (ssPendrin, SLC26A4) (Sus scrofa, UniProt A0A480E679); experiment: cryo-EM structure at […] Å; inhibition of […]-HCO3- uptake in proteoliposomes of purified protein; assay type: biochemical
T1 construct: C-terminal TEV site and 8x His-tag
T1 sequence (A0A480E679 1-780): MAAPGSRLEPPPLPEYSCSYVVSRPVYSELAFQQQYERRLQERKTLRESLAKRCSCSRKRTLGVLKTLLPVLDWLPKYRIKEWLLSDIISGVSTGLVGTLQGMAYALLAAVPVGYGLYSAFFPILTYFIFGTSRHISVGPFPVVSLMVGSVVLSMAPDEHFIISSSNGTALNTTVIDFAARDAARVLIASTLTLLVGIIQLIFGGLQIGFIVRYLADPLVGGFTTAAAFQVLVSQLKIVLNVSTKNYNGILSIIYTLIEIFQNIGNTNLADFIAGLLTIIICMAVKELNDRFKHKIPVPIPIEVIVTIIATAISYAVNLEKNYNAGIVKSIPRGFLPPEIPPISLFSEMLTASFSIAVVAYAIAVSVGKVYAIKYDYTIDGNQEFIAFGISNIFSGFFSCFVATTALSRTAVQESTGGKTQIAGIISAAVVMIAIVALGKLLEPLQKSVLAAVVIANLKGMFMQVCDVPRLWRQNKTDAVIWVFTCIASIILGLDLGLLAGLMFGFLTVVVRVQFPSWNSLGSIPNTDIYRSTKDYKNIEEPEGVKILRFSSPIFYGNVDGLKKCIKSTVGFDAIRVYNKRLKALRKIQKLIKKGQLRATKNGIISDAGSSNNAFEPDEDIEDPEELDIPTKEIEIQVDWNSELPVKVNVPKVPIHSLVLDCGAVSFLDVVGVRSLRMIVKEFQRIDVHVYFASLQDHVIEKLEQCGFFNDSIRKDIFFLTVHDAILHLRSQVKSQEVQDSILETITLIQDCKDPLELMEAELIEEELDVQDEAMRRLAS

[3] = target: pendrin (ssPendrin, SLC26A4) (Sus scrofa, UniProt A0A480E679, T224V); experiment: inhibition of […]-HCO3- uptake in proteoliposomes of purified mutant; assay type: biochemical
Chain of pendrin (ssPendrin, SLC26A4) (Sus scrofa, UniProt A0A480E679, T224V) (A0A480E679 entry or part of it T224V): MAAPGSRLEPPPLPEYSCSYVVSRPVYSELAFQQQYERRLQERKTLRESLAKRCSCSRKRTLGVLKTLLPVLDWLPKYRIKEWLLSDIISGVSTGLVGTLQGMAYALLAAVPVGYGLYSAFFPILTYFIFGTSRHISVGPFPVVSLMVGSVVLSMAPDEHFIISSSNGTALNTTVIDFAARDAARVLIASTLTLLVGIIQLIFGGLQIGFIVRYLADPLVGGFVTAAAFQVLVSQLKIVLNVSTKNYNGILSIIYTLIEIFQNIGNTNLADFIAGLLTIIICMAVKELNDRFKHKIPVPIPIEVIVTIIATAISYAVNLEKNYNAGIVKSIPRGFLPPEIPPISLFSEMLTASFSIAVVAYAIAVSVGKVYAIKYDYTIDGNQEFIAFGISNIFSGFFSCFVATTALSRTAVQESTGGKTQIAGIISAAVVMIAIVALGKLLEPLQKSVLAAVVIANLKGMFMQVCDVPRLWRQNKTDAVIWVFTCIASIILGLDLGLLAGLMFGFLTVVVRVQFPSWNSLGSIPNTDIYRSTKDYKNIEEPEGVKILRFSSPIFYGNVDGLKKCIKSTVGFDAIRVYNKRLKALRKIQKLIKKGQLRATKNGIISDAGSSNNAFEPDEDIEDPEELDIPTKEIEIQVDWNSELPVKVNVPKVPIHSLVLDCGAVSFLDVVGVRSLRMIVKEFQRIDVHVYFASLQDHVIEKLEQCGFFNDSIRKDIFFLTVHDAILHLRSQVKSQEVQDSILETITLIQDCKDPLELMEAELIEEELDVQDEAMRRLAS

[4] = target: pendrin (ssPendrin, SLC26A4) (Sus scrofa, UniProt A0A480E679, Q101L); experiment: as above; assay type: biochemical
Chain of pendrin (ssPendrin, SLC26A4) (Sus scrofa, UniProt A0A480E679, Q101L) (A0A480E679 entry or part of it Q101L): as the sequence (A0A480E679 entry or part of it T224V) above, with Q101L, V224T counted along it

[5] = target: pendrin from Sus scrofa (ssPendrin) (Sus scrofa); experiment: cryo-EM structure; purified ssPendrin in 20 mM HEPES pH 7.5, 2 mM BME, 0.02% GDN with 150 mM NaCl, NaI, NaHCO3 or Na gluconate, or 150 mM NaCl and 10 mM NFA; refined with C2 symmetry

Chain of pendrin (ssPendrin, SLC26A4) (Sus scrofa, UniProt A0A480E679, Q101L/T224A) (A0A480E679 entry or part of it Q101L/T224A): as the sequence (A0A480E679 entry or part of it T224V) above, with Q101L, V224A counted along it

stoichiometry N [5] | Compound | IC50 [1] [µM] | IC50 [2] [µM] | IC50 [3] [µM] | IC50 [4] [µM]
 | O=C(O)c1cccnc1Nc1cccc(C(F)(F)F)c1 [NFA, niflumic acid] | 16.3 | 15.5 ± 1.5 | 9.5 | 31.2
2 | pendrin from Sus scrofa (ssPendrin) (natural protein) |  |  |  | 
